Measurements: patent US20220396577A1, “NOVEL SUBSTITUTED 1,3-8-TRIAZASPIRO[4,5] DECANE-2,4-DIONE COMPOUNDS AS INDOLEAMINE 2,3-DIOXYGENASE (IDO) AND/OR TRYPTOPHAN 2,3-DIOXYGENASE (TDO) INHIBITORS” (Merck Sharp & Dohme LLC, priority 2019, published 2022)

Experiments:
IDO1 = IDO1 (Homo sapiens, UniProt P14902); test: IDO1 Human Whole Blood Assay (D); type: cell-based; set-up: from tissue; host or cells: human whole blood from healthy donors, stimulated with LPS and IFNγ; details: LPS and IFNγ, 18 h, read-out: IDO WB IC50, nM (D)
Experimental: Compounds to be tested were serially diluted in ten 3-fold steps in DMSO starting from 10 mM. 3 μL of compound dilutions or DMSO alone were then dispensed from the dilution plate into a polypropylene 96-well assay plate containing 97 μL of RPMI using an Echo 555 acoustic liquid handler (Labcyte). LPS and IFNγ was prepared in RPMI to a 10× of final conc. (1000 ng/mL), final concentration is 100 ng/mL.
Human whole blood was drawn in sodium heparin coated tubes from healthy internal donors. 240 μL of blood was transferred to each of the wells of a v-bottom 96 well plate. 30 μL of a compound was transferred from intermediate dilution plate, and incubated for 15 min. 30 μL of the LPS and IFNγ solution prepared above was then transferred to a blood sample and mixed thoroughly. Plate was covered with breathable membrane and incubated at 37° C. for overnight (18 h).
On day 2 isotope labeled standard of kynurenine and tryptophan was made in water at 10× concentration and 30 μL was added to the blood sample at 3 μM final concentration. […] 20 μL of supernatant was carefully transferred to a 384 well plate contain 40 μL of 0.1% formic acid in water and analyzed by LC/MS/MS.
LC/MS/MS analyses were performed using Thermo Fisher's LX4-TSQ Quantum Ultra system. […] Compounds were titrated and IC50 values were calculated by 4 parameter sigmoidal curve fitting formula.

SGK2 = target: T1, SGK2 (Homo sapiens, UniProt Q9HBY8); test: Off-target kinase panel, ZLYTE: SGK2; type: biochemical; details: read-out: Estimated IC50 (uM) SGK2
T1 sequence (Q9HBY8 1-367): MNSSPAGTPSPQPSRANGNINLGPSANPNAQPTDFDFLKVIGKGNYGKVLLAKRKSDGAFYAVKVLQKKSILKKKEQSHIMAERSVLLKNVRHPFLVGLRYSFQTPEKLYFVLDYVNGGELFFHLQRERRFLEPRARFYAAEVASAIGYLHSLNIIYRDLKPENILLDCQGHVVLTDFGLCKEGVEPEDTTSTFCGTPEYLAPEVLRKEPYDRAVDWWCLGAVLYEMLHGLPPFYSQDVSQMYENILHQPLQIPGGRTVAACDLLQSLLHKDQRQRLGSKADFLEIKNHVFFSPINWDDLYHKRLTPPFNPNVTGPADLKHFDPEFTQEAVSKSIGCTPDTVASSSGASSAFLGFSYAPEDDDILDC
Source text: (§1) The activity data was obtained in a panel of 265 and 264 for compounds 1-1 and CC-1, respectively, using the ZLYTE and ADAPTA assay methods indicated in the table below.
(§2) The ZLYTE biochemical assay employs a fluorescence-based, coupled-enzyme format and is based on the differential sensitivity of phosphorylated and non-phosphorylated peptides to proteolytic cleavage. The peptide substrate is labeled with two fluorophores—one at each end—that make up a Fluorescence Resonance Energy Transfer (FRET) pair.
(§3) In the primary reaction, the kinase transfers the gamma-phosphate of ATP to a single tyrosine, serine or threonine residue in a synthetic FRET-peptide. In the secondary reaction, a site-specific protease recognizes and cleaves non-phosphorylated FRET-peptides. Phosphorylation of FRET-peptides suppresses cleavage by the Development Reagent. […] A ratiometric method, which calculates the ratio (the Emission Ratio) of donor emission to acceptor emission after excitation of the donor fluorophore at 400 nm, is used to quantitate reaction progress, as shown in the equation below. […]
(§4) Both cleaved and uncleaved FRET-peptides contribute to the fluorescence signals and therefore to the Emission Ratio. The extent of phosphorylation of the FRET-peptide can be calculated from the Emission Ratio. […]
(§5) 10. Read on fluorescence plate reader and analyze the data.

TYK2 = TYK2 (Homo sapiens, UniProt P29597); test: Off-target kinase panel, ZLYTE: TYK2; type: biochemical; details: read-out: Estimated IC50 (uM) TYK2
Source text: as §1, §2, §3, §4, §5

CDK2 = CDK2 (Homo sapiens, UniProt P24941); test: Off-target kinase panel, ZLYTE: CDK2; type: biochemical; details: read-out: Estimated IC50 (uM) CDK2
Source text: as §1, §2, §3, §4, §5

TYK2, sequence (P29597 whole entry): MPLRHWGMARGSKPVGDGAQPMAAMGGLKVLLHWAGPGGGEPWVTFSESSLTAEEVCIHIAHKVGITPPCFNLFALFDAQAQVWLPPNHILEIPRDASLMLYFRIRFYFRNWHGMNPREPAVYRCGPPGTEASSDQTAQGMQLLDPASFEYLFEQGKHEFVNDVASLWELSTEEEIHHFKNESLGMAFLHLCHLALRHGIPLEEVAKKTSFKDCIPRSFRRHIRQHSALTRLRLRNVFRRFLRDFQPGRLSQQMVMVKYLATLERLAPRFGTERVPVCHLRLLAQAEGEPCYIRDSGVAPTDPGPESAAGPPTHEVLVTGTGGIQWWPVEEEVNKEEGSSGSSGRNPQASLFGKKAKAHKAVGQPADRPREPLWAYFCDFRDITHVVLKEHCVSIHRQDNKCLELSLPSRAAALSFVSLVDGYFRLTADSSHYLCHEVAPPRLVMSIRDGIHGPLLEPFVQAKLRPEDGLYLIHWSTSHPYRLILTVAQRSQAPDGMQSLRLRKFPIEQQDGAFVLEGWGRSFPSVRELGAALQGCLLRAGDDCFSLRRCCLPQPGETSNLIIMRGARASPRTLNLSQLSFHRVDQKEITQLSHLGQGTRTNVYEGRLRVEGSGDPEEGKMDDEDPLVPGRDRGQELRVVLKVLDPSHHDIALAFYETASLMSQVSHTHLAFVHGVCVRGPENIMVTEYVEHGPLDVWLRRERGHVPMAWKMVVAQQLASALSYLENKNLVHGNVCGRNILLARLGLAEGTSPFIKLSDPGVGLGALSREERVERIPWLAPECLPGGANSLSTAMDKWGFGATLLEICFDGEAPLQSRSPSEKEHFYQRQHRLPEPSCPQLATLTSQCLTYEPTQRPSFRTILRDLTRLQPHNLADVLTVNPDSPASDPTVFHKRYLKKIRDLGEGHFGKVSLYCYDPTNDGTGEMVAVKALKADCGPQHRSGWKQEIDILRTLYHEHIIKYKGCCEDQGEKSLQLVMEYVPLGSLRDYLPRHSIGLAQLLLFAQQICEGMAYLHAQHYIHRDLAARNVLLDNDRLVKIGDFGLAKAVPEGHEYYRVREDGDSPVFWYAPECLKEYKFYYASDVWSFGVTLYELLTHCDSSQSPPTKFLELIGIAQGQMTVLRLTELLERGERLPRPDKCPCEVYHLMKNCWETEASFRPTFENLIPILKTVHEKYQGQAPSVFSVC
IDO1, sequence (P14902 whole entry): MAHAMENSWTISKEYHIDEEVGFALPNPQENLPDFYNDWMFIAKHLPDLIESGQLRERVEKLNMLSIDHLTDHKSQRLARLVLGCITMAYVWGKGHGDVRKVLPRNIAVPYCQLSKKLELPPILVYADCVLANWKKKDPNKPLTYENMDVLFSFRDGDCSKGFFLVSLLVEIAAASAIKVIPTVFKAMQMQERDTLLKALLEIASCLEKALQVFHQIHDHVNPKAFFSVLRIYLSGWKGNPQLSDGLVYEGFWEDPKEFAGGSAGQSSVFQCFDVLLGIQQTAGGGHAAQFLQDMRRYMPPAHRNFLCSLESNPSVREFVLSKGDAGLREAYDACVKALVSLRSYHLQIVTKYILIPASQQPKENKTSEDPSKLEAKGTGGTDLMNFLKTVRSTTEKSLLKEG

Row | IC50 (IDO1) [nM] | IC50 (SGK2) [µM] | IC50 (TYK2) [µM] | IC50 (CDK2) [µM] | Structure (SMILES)
1 | 345 | > 2 | > 2 | > 2 | C[C@@H]1CN(c2cc(Br)cc3[nH]ncc23)CC[C@]12NC(=O)NC2=O (single isomer, unassigned) [Compound 1-1]
2 | 556 | 1.3 | 2 | 1.5 | O=C1NC(=O)C2(CCN(c3cc(Cl)cc4[nH]ncc34)CC2)N1 [CC-1]
